Source: ChEMBL document CHEMBL1201862, “PubChem BioAssay data set” (2004)
Active and inactive are the calls of the source.

Target: T1, Protein RecA (Mycobacterium tuberculosis, UniProt P9WHJ3)
T1 sequence (P9WHJ3 whole entry): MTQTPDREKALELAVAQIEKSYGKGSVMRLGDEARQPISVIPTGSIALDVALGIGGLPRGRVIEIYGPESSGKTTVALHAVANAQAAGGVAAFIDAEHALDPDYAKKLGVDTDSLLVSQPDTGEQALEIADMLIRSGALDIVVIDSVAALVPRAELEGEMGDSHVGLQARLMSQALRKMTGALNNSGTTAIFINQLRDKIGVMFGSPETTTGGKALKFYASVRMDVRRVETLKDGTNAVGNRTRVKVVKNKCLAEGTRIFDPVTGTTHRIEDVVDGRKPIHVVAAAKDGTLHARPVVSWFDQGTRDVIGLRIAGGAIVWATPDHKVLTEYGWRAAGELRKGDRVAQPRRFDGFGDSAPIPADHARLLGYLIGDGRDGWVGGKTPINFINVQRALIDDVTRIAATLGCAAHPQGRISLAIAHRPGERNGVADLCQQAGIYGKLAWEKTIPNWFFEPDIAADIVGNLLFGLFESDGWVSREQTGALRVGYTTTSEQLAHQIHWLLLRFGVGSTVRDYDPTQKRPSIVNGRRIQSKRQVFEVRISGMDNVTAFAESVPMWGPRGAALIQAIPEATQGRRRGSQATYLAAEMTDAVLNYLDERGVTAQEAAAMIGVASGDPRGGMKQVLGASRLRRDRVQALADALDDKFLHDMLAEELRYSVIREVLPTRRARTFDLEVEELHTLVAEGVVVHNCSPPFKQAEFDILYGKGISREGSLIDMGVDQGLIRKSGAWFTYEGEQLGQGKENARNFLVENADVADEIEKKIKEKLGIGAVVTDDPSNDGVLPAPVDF
Assay: Fluorescence Cell-Free Homogeneous Dose Retest to Identify Inhibitors of RecA-Intein Splicing Activity. [Related pubchem assays (depositor defined):AID2097, AID2223, AID489010, AID492950]
Format: functional
Conditions: not given

| SMILES | EC50 |
| --- | --- |
| CCOc1cc(C(c2c(C)n[nH]c2O)c2c(C)n[nH]c2O)ccc1OS(=O)(=O)c1ccc(C)cc1 | 0.152 µM (active) |
| Cc1onc(-c2c(Cl)cccc2Cl)c1C(=O)N1C(C)CCCC1C (centres undefined) | > 380 µM (inactive) |
| COC(=O)c1ccccc1OC(=O)c1ccc(Br)o1 | 15.2 µM (active) |
| COc1cc(N)c(Cc2nccc3cc(OC)c(OC)cc23)cc1OC | 31.7 µM (active) |
| O=C(NC(=C(Cl)Cl)S(=O)(=O)c1ccc(Cl)cc1)c1ccccc1 | 1.53 µM (active) |
| CN1C(=O)C(Cc2ccc3c(c2)OCO3)C(=O)N(C)C1=O | 10 µM (active) |
| CC1=NNC(=O)C1Cc1ccccc1 (centres undefined) | 0.294 µM (active) |
| C=CCc1cccc(/C=N/c2cnc(O)nc2O)c1O | > 380 µM (inconclusive) |
| CCNC(=O)c1ccccc1-c1nc(-c2ccccc2)no1 | > 380 µM (inactive) |

Test system: not listed separately
Assay: NIH-3T3 fibroblast cytotoxicity, dose response, cytotoxicity control, cell-based, fluorescence, Alamar Blue, secondary assay (AID 2327);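 note: NIH-3T3 mouse fibroblasts cultured with fluconazole at 8 µg/mL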
Format: functional
Conditions: not given

| SMILES | EC50 |
| --- | --- |
| O=c1c2ccccc2nc(-c2ccc([N+](=O)[O-])cc2)n1O | > 150 µM (inactive) |

Target: Paired box protein Pax-8 (Homo sapiens, UniProt Q06710)
Assay: inhibitors of PAX8-driven TPO luciferase reporter, dose response, RMG-I cells, cherry-pick (AID 687027);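 note: luciferase reporter driven by Pax8 target thyroperoxidase promoter measured by SteadyGlo luminescence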
Format: functional, cell-based
Conditions: not given

Sequence of Paired box protein Pax-8 (Q06710 whole entry): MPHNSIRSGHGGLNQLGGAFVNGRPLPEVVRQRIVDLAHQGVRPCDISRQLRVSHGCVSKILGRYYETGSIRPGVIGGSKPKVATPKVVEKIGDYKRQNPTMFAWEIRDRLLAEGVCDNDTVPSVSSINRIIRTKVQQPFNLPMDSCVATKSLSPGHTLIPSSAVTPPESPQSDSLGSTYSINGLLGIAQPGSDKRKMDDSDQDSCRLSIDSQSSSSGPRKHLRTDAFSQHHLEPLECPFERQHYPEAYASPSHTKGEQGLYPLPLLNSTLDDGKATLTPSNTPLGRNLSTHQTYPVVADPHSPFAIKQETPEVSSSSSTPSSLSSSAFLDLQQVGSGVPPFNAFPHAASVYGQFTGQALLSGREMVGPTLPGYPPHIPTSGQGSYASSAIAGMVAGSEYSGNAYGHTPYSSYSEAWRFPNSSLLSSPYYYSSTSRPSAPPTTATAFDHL

| SMILES | AC50 |
| --- | --- |
| COc1ccc(F)cc1-c1cc(NC=O)c2ncc(-c3cc(OC)c(OC)c(OC)c3)n2c1 | 3.49 µM (active) |

Target: T2, Cytochrome P450 1A2 (Homo sapiens, UniProt P05177);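 note: PubChem cytochrome P450 panel assay, CYP1A2 panel member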
T2 sequence (P05177 whole entry): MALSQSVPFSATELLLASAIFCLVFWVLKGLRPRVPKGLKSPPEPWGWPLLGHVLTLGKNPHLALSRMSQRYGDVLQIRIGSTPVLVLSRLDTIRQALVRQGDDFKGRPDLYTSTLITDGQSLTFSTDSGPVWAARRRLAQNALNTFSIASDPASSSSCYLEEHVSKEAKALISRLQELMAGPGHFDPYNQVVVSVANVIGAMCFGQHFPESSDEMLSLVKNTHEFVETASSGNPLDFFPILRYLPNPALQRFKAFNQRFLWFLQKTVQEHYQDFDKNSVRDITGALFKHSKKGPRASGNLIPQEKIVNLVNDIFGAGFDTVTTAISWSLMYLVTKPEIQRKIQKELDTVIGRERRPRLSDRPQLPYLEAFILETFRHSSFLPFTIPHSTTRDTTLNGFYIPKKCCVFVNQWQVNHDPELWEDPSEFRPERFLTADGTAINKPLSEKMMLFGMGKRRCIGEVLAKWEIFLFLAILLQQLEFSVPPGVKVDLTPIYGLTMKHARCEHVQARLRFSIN
Assay: not given
Conditions: not given

| SMILES | AC50 |
| --- | --- |
| CN(C)c1ncc2nc(-c3ccccc3)c(=O)n(Cc3ccc(F)cc3)c2n1 | 12.6 µM (inconclusive) |
| c1ccc(SC(Sc2ccccc2)c2ccc3c(c2)OCO3)cc1 | 0.501 µM (inconclusive) |
| COc1ccc(CN2CN(c3ccc(Cl)cc3)C(=O)N(n3cnnc3)C2)cc1 | 15.8 µM (inconclusive) |
| COc1ccc(S(=O)(=O)NC2(C(F)(F)F)N=C3SCCN3C2=O)cc1 (centres undefined) | 31.6 µM (inconclusive) |
| Cc1ccccc1OC[C@H](O)CO | 15.8 µM (inconclusive) |
| COC(=O)[C@@]1(Cc2ccccc2)[C@H]2c3cc(C(=O)N4CCCC4)n(C)c3C[C@H]2CN1C(=O)c1ccccc1 | 25.1 µM (inconclusive) |
| CC1(C)SC(=S)N(NC(=O)Nc2ccccc2)C1N(O)C(=O)Nc1ccccc1 (centres undefined) | 28.2 µM (inconclusive) |
| CN(C)CCn1c(C(=O)O)cc2ccccc21 | 0.0158 µM (inconclusive) |
| COC(=O)c1ccccc1OCC(=O)N1CCN(c2ccc(Cl)cc2)CC1 | 14.1 µM (inconclusive) |

Target: T3, Replicative DNA helicase DnaB (Mycobacterium tuberculosis, UniProt P9WMR3)
T3 sequence (P9WMR3 whole entry): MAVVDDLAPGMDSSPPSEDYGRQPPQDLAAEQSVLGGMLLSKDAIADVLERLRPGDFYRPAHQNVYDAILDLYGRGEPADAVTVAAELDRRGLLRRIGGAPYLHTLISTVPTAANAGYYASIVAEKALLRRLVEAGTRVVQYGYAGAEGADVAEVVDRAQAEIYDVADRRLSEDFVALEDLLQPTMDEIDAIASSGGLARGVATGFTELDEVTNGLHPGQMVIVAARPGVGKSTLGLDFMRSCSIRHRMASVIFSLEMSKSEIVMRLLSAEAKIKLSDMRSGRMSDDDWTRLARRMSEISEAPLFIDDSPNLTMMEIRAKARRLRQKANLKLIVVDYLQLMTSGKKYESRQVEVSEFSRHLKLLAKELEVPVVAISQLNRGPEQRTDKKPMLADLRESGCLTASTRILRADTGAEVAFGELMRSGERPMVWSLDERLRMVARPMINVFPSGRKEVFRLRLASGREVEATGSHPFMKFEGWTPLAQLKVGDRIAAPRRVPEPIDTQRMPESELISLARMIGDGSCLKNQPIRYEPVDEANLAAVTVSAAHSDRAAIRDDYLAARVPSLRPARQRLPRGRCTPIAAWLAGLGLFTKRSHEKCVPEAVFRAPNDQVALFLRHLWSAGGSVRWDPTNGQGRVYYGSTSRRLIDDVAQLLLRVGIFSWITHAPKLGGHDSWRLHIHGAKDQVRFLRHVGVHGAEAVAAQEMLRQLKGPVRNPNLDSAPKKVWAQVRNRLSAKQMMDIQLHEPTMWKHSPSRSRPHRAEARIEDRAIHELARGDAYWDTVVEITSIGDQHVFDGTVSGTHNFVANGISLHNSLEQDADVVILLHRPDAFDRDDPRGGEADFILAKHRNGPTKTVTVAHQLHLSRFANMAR
Assay: DnaB intein splicing inhibitors, dose response, biochemical, cell-free fluorescence (AID 449749)
Format: functional
Conditions: not given

| SMILES | AC50 |
| --- | --- |
| CCOc1cc(C(c2c(C)n[nH]c2O)c2c(C)n[nH]c2O)ccc1OS(=O)(=O)c1ccc(C)cc1 | 0.413 µM (active) |
| Cc1onc(-c2c(Cl)cccc2Cl)c1C(=O)N1C(C)CCCC1C (centres undefined) | 118 µM (active) |
| COC(=O)c1ccccc1OC(=O)c1ccc(Br)o1 | 12.8 µM (active) |
| COc1cc(N)c(Cc2nccc3cc(OC)c(OC)cc23)cc1OC | > 380 µM (inactive) |
| O=C(NC(=C(Cl)Cl)S(=O)(=O)c1ccc(Cl)cc1)c1ccccc1 | > 380 µM (inactive) |
| CN1C(=O)C(Cc2ccc3c(c2)OCO3)C(=O)N(C)C1=O | 35.3 µM (active) |
| CC1=NNC(=O)C1Cc1ccccc1 (centres undefined) | 0.651 µM (active) |
| C=CCc1cccc(/C=N/c2cnc(O)nc2O)c1O | > 380 µM (inactive) |
| CCNC(=O)c1ccccc1-c1nc(-c2ccccc2)no1 | > 380 µM (inactive) |

Test system: not listed separately
Assay: HEp-2 cell cytotoxicity, dose response, cytotoxicity control for RSV inhibitor project, HTS (AID 2410)
Format: functional
Conditions: human respiratory syncytial virus

| SMILES | CC50 |
| --- | --- |
| COc1ccc(/C=N/N=C(\N)c2nonc2N)cc1OC | 30.9 µM (active) |
| NS(=O)(=O)c1cccc(NC(=O)COC(=O)c2cc(-c3ccc(Cl)cc3)nc3ccccc23)c1 | 18.5 µM (active) |
| COc1ccc(C)cc1Nc1nc(N)c2ccccc2n1 | > 50 µM (active) |
| CC(C)C(=O)N1CCN(c2c(Cl)cccc2[N+](=O)[O-])CC1 | 16.3 µM (active) |
| CN(C)/C=N/c1nc(-c2ccc3ccccc3c2)cs1 | 22.8 µM (active) |
| COc1ccc(-c2cc(OC)c3ccccc3n2)cc1 | > 50 µM (active) |
| CNc1cc([N+](=O)[O-])ccc1OCc1ccccc1 | 18.7 µM (active) |
| CCC(C)Oc1ccc(/C=C/c2nc(O)nc(O)c2[N+](=O)[O-])cc1OC (centres undefined) | 12.9 µM (active) |
| COC(=O)c1ccc2c(=O)n(CCO)c(=S)[nH]c2c1 | 25.2 µM (active) |
| Oc1ncnc2scc(-c3ccc(Br)cc3)c12 | > 50 µM (active) |
| COc1ccccc1Nc1ncc(-c2cccs2)s1 | 43 µM (active) |

Target: T4, Rac GTPase-activating protein 1 (Homo sapiens, UniProt Q9H0H5)
T4 sequence (Q9H0H5 whole entry): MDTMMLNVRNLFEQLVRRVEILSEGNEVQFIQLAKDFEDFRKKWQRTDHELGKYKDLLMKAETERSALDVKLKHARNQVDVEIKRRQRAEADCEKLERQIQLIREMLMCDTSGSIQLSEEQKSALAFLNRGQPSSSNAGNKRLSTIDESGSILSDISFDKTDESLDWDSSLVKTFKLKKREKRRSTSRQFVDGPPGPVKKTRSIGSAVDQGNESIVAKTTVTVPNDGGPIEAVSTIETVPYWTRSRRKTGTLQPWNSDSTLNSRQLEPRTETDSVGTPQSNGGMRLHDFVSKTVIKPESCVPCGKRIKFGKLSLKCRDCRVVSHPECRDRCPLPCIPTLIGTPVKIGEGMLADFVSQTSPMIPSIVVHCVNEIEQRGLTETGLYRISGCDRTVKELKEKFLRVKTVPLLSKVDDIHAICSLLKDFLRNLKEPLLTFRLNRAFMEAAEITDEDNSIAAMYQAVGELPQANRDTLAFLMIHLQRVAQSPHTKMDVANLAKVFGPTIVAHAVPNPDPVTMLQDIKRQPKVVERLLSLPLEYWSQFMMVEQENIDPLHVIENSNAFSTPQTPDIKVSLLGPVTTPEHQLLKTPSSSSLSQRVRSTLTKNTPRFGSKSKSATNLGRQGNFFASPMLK
Assay: MgcRacGAP GTPase-activating activity inhibitors, confirmation, biochemical, ADP Hunter fluorescence, primary and confirmatory (AID 624330)
Format: functional
Conditions: not given

| SMILES | IC50 |
| --- | --- |
| O=C(CNCc1ccc(Cl)cc1)Nc1ccc2c(c1)OCCO2 | 156 µM (active) |
| CC(NCc1ccc(S(N)(=O)=O)cc1)C(=O)N1c2ccccc2CC1C (centres undefined) | 135 µM (active) |
| CCN(Cc1ccccc1)C1CCN(Cc2ccc(SC)cc2)CC1 | 100 µM (active) |
| CCOC(=O)/C(C#N)=C1\C(=O)N(Cc2ccccc2)c2ccccc21 | 42.4 µM (active) |
| Cc1ccc(N2C(S)=C(C#N)C(=O)NC2c2cccs2)cc1 (centres undefined) | 128 µM (active) |
| O=C(N/N=C/c1ccc(O)cc1)NC12CC3CC(CC(C3)C1)C2 | 55.9 µM (active) |
| CC1(C)OC(C)(C)C(/C=N/c2ccc(O)cc2)=C1O | 17 µM (active) |
| Oc1ccc(-c2nccs2)cc1 | 28.1 µM (active) |

Target: Cytochrome P450 2C9 (Homo sapiens, UniProt P11712)
Assay: not given
Conditions: not given

Sequence of Cytochrome P450 2C9 (P11712 whole entry): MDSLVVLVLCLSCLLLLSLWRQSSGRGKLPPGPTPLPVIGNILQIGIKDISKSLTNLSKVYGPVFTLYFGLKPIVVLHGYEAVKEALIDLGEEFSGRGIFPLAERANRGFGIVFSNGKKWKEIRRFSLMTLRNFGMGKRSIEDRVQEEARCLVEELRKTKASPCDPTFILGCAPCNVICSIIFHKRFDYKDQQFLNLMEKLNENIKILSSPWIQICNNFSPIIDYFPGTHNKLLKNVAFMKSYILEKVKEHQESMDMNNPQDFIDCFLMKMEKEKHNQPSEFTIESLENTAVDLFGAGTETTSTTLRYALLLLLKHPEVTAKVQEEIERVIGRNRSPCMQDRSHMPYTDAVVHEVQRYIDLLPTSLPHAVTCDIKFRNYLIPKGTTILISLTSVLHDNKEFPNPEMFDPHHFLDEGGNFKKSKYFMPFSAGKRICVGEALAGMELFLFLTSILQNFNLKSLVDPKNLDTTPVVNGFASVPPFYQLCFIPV

| SMILES | AC50 |
| --- | --- |
| CCn1c(SCc2ccc(Cl)cc2Cl)nc2nc3c(cc2c1=O)CCCC3 | 5.01 µM (inconclusive) |
| COC(=O)Cc1c(C)nc2nc(NCc3ccccc3OC)nn2c1O | 22.4 µM (inconclusive) |
| CNC(=S)N1CCN(c2ccccc2OC)CC1 | 14.1 µM (inconclusive) |
| COCCn1c(=O)cnc2cnc(Nc3cccc(OC)c3)nc21 | 25.1 µM (inconclusive) |
| COc1ccc(CN2CN(c3ccc(Cl)cc3)C(=O)N(n3cnnc3)C2)cc1 | 39.8 µM (inconclusive) |
| COc1ccc(S(=O)(=O)NC2(C(F)(F)F)N=C3SCCN3C2=O)cc1 (centres undefined) | 28.2 µM (inconclusive) |
| Cc1ccc(OCC(=O)NC2=NCCS2)cc1 | 10 µM (inconclusive) |
| CCOC(=O)[C@H](N)/C=C(\C)CP(=O)(O)O | 25.1 µM (inconclusive) |
| COC(=O)c1ccccc1OCC(=O)N1CCN(c2ccc(Cl)cc2)CC1 | 14.1 µM (inconclusive) |
| Cc1oc(-c2ccccc2Cl)nc1CSCC(=O)NC1CC1 | 20 µM (inconclusive) |

Test system: P388/ADR
Assay: cells
Format: functional
Conditions: Mus musculus

| SMILES | GI50 |
| --- | --- |
| C/C=C(\C)C(=O)OC1C2C(C)=CC(=O)C(O)C2(C)C2C3(O)OCC24C1OC(=O)C(OC(C)=O)C4C(C)C3O (centres undefined) | 0.319 µM (active) |
